Among the data in patent publication US9265253B2, “Use of macrocyclic picolinamides as fungicides” (DOW AGROSCIENCES LLC, priority 2013, dated 2016) are pest or weed control values, retold here.

Assay [1] has as its system Puccinia triticina; Synonym: Puccinia recondite f. Sp. Tritici. As to the kind of experiment: Wheat Brown Rust (PUCCRT) disease control. The settings on record: Puccinia triticina, topical. The assay is classed as in vivo. As to the method: (§1) Technical grades of materials were dissolved in acetone, which were then mixed with nine volumes of water containing 110 ppm Triton X-100. The fungicide solutions were applied onto wheat seedlings using an automated booth sprayer to run-off. All sprayed plants were allowed to air dry prior to further handling. All fungicides were evaluated using the aforementioned method for their activity vs. all target diseases. Wheat leaf blotch and brown rust activity were also evaluated using track spray applications, in which case the fungicides were formulated as EC formulations, containing 0.1% Trycol 5941 in the spray solutions. Wheat plants (variety Yuma) were grown from seed in a greenhouse in 50% mineral soil/50% soil-less Metro mix until the first leaf was fully emerged, with 7-10 seedlings per pot. These plants were inoculated with an aqueous spore suspension of Septoria tritici either prior to or after fungicide treatments. After inoculation the plants were kept in 100% relative humidity (one day in a dark dew chamber followed by two to three days in a lighted dew chamber at 20° C.) to permit spores to germinate and infect the leaf. The plants were then transferred to a greenhouse set at 20° C. for disease to develop. When disease symptoms were fully expressed on the 1st leaves of untreated plants, infection levels were assessed on a scale of 0 to 100 percent disease severity. Percent disease control was calculated using the ratio of disease severity on treated plants relative to untreated plants. Wheat plants (variety Yuma) were grown from seed in a greenhouse in 50% mineral soil/50% soil-less Metro mix until the first leaf was fully emerged, with 7-10 seedlings per pot. These plants were inoculated with an aqueous spore suspension of Puccinia triticina either prior to or after fungicide treatments. After inoculation the plants were kept in a dark dew room at 22° C. with 100% relative humidity overnight to permit spores to germinate and infect the leaf. The plants were then transferred to a greenhouse set at 24° C. for disease to develop. Fungicide formulation, application and disease assessment followed the procedures as described in the Example A.

For assay [2], the system named is Mycosphaerella graminicola; Anamorph: Septoria tritici. As to the kind of experiment: Leaf Blotch of Wheat (SEPTTR) disease control. The assay is classed as in vivo. To be noted: Zymoseptoria tritici. The procedure:
as §1, with “plants.” for “plants. Wheat plants (variety Yuma) were grown from seed in a greenhouse in 50% mineral soil/50% soil-less Metro mix until the first leaf was fully emerged, with 7-10 seedlings per pot. These plants were inoculated with an aqueous spore suspension of Puccinia triticina either prior to or after fungicide treatments. After inoculation the plants were kept in a dark dew room at 22° C. with 100% relative humidity overnight to permit spores to germinate and infect the leaf. The plants were then transferred to a greenhouse set at 24° C. for disease to develop. Fungicide formulation, application and disease assessment followed the procedures as described in the Example A.”

Setting [3] is: 24 h, 1 Day Protectant, rate 100 ppm, read-out: PUCCRT 1 DP disease control.
Setting [4] is: 24 h, 1 Day Protectant, rate 121.5 g/H, read-out: PUCCRT 1 DP disease control.
The mark [5] stands for this setting: 72 h, 3 Day Curative, rate 100 ppm, read-out: PUCCRT 3 DC disease control.
Setting [6] is: 72 h, 3 Day Curative, rate 121.5 g/H, read-out: PUCCRT 3 DC disease control.
Setting [7] is: 24 h, 1 Day Protectant, rate 100 ppm, read-out: SEPTTR 1 DP disease control.
The mark [8] stands for this setting: 24 h, 1 Day Protectant, rate 121.5 g/H, read-out: SEPTTR 1 DP disease control.
The mark [9] stands for this setting: 72 h, 3 Day Curative, rate 100 ppm, read-out: SEPTTR 3 DC disease control.
The mark [10] stands for this setting: 72 h, 3 Day Curative, rate 121.5 g/H, read-out: SEPTTR 3 DC disease control.
Setting [11] is: 24 h, Wheat Brown Rust, 1 Day Protectant, rate 100 ppm (high volume application), read-out: Disease control PUCCRT 1 DP.
Where [12] appears, read: 24 h, Wheat Brown Rust, 1 Day Protectant, rate 121.5 g/H (low volume application), read-out: Disease control PUCCRT 1 DP.
[13] abbreviates: 72 h, Wheat Brown Rust, 3 Day Curative, rate 100 ppm (high volume application), read-out: Disease control PUCCRT 3 DC.
Where [14] appears, read: 72 h, Wheat Brown Rust, 3 Day Curative, rate 121.5 g/H (low volume application), read-out: Disease control PUCCRT 3 DC.
Setting [15] is: 24 h, Wheat Leaf Blotch, 1 Day Protectant, rate 100 ppm (high volume application), read-out: Disease control SEPTTR 1 DP.
Setting [16] is: 24 h, Wheat Leaf Blotch, 1 Day Protectant, rate 121.5 g/H (low volume application), read-out: Disease control SEPTTR 1 DP.
[17] abbreviates: 72 h, Wheat Leaf Blotch, 3 Day Curative, rate 100 ppm (high volume application), read-out: Disease control SEPTTR 3 DC.
The mark [18] stands for this setting: 72 h, Wheat Leaf Blotch, 3 Day Curative, rate 121.5 g/H (low volume application), read-out: Disease control SEPTTR 3 DC.

Molecules are shown by their SMILES. Like-named read-outs stand apart in the source and are kept apart here.

In the case of `COc1ccnc(C(=O)N[C@H]2CCC[C@H](CCOCC3CC3)[C@@H](OCC3CC3)[C@H](C)OC2=O)c1OCOC(=O)C(C)C` [Compound F156], the pest or weed control at 100 ppm in assay [1] (setting [3]) lay within 80 to 100%; in assay [1] (setting [5]), 80 to 100%; in assay [2] (setting [7]) it was 0 to 80%; in assay [2] (setting [9]), 0 to 80%. Also, the pest or weed control at 121.5 g/ha in assay [1] (setting [4]) lay in the range of 80 to 100%; in assay [1] (setting [6]) it was 80 to 100%; in assay [2] (setting [8]), 0 to 80%; in assay [2] (setting [10]) it was 0 to 80%.

As to `COc1ccnc(C(=O)N[C@H]2CCC[C@H](CCOCC3CC3)[C@@H](OCC3CC3)[C@H](C)OC2=O)c1OC(=O)C1CC1` [Compound F196], the pest or weed control at 100 ppm in assay [1] (setting [11]) lay in the range of 80 to 100%; in assay [1] (setting [13]), 80 to 100%; in assay [2] (setting [15]), 80 to 100%; in assay [2] (setting [17]), 0 to 80%. The pest or weed control at 121.5 g/ha in assay [1] (setting [12]) lay within 80 to 100%; in assay [1] (setting [14]), 80 to 100%; in assay [2] (setting [16]), 0 to 80%; in assay [2] (setting [18]), 0 to 80%.

In the case of `CCOCC(=O)Oc1c(OC)ccnc1C(=O)N[C@H]1CCC[C@H](CCOC)[C@@H](Oc2ccccc2)[C@H](C)OC1=O` [Compound F186], the pest or weed control at 100 ppm in assay [1] (setting [3]), in assay [1] (setting [5]), in assay [2] (setting [7]) and in assay [2] (setting [9]) was 80 to 100% each time.

As to `COc1ccc(C[C@H]2CCC[C@H](NC(=O)c3nccc(OC)c3O)C(=O)O[C@@H](C)[C@@H]2OCC(C)C)cc1` [Compound F32], the pest or weed control at 100 ppm was 80 to 100% in assay [1] (setting [3]), 0 to 80% in assay [1] (setting [5]), 80 to 100% in assay [2] (setting [7]) and 80 to 100% in assay [2] (setting [9]).

Consider `COc1ccnc(C(=O)N[C@H]2CCC[C@H](CCC(C)C)[C@@H](OC)[C@H](C)OC2=O)c1OC(C)=O` [Compound F66], for which the pest or weed control at 100 ppm in assay [1] (setting [3]), in assay [1] (setting [5]), in assay [2] (setting [7]) and in assay [2] (setting [9]) was 80 to 100% each time. The pest or weed control at 121.5 g/ha in assay [1] (setting [4]) was 0 to 80%; in assay [1] (setting [6]) it was 0 to 80%; in assay [2] (setting [8]), 80 to 100%; in assay [2] (setting [10]) it was 0 to 80%.

Take `COc1ccnc(C(=O)N[C@H]2CCC[C@H](CCOc3ccccc3)[C@@H](OCC3CC3)[C@H](C)OC2=O)c1OC(C)=O` [Compound F84]: the pest or weed control at 100 ppm in assay [1] (setting [3]), in assay [1] (setting [5]), in assay [2] (setting [7]) and in assay [2] (setting [9]) was 80 to 100% each time. For the same compound, the pest or weed control at 121.5 g/ha in assay [1] (setting [4]) was 80 to 100%; in assay [1] (setting [6]), 80 to 100%; in assay [2] (setting [8]) it was 0 to 80%.

For `COCC[C@H]1CCC[C@H](NC(=O)c2nccc(OC)c2O)C(=O)O[C@@H](C)[C@@H]1Oc1ccccc1` [Compound F45], the pest or weed control at 100 ppm in assay [1] (setting [3]), in assay [1] (setting [5]), in assay [2] (setting [7]) and in assay [2] (setting [9]) was 80 to 100% in each case.

As to `CCCO[C@@H]1[C@@H](CC2CCCC2)CCC[C@H](NC(=O)c2nccc(OC)c2OCOC(C)=O)C(=O)O[C@H]1C` [Compound F122], the pest or weed control at 100 ppm in assay [1] (setting [3]), in assay [1] (setting [5]), in assay [2] (setting [7]) and in assay [2] (setting [9]) was 80 to 100% throughout. Also, the pest or weed control at 121.5 g/ha in assay [1] (setting [4]), in assay [1] (setting [6]), in assay [2] (setting [8]) and in assay [2] (setting [10]) was 80 to 100% each time.

`CCOCC(=O)OCOc1c(OC)ccnc1C(=O)N[C@H]1CCC[C@H](CCOc2ccccc2)[C@@H](Oc2ccccc2)[C@H](C)OC1=O` [Compound F182]: the pest or weed control at 100 ppm in assay [1] (setting [3]), in assay [1] (setting [5]), in assay [2] (setting [7]) and in assay [2] (setting [9]) was 80 to 100% each time. Besides, the pest or weed control at 121.5 g/ha in assay [1] (setting [4]) fell in the range of 80 to 100%; in assay [1] (setting [6]), 0 to 80%; in assay [2] (setting [8]), 80 to 100%; in assay [2] (setting [10]), 80 to 100%.

Regarding `COCCC(=O)Oc1c(OC)ccnc1C(=O)N[C@H]1CCC[C@H](CC2CCCC2)[C@@H](OCC2CC2)[C@H](C)OC1=O` [Compound F194], the pest or weed control at 100 ppm in assay [1] (setting [11]), in assay [1] (setting [13]), in assay [2] (setting [15]) and in assay [2] (setting [17]) was 80 to 100% each time. Moreover, the pest or weed control at 121.5 g/ha was 80 to 100% in assay [1] (setting [12]), 0 to 80% in assay [1] (setting [14]), 80 to 100% in assay [2] (setting [16]) and 80 to 100% in assay [2] (setting [18]).

Turning to `CCOCC(=O)OCOc1c(OC)ccnc1C(=O)N[C@H]1CCC[C@H](Cc2ccc(F)cc2)[C@@H](OC(=O)C(C)C)[C@H](C)OC1=O` [Compound F171], the pest or weed control at 100 ppm in assay [1] (setting [3]), in assay [1] (setting [5]), in assay [2] (setting [7]) and in assay [2] (setting [9]) was 80 to 100% in each case. The pest or weed control at 121.5 g/ha was 80 to 100% in assay [1] (setting [4]), 0 to 80% in assay [1] (setting [6]), 80 to 100% in assay [2] (setting [8]) and 80 to 100% in assay [2] (setting [10]).

As to `COc1ccnc(C(=O)N[C@H]2CCC[C@H](CC3CCCC3)[C@@H](OCC(C)C)[C@H](C)OC2=O)c1O` [Compound F37], the values for the pest or weed control at 100 ppm in assay [1] (setting [3]), in assay [1] (setting [5]) and in assay [2] (setting [7]) were 0 to 80%, 0 to 80% and 80 to 100%, respectively.

As for `COc1ccnc(C(=O)N[C@H]2CCC[C@H](CC3CCCCC3)[C@@H](OCC(C)C)[C@H](C)OC2=O)c1O` [Compound F25], the pest or weed control at 100 ppm lay within 80 to 100% in assay [1] (setting [3]), 80 to 100% in assay [2] (setting [7]) and 0 to 80% in assay [2] (setting [9]).

In the case of `CC[C@H]1CCC[C@H](NC(=O)c2nccc(OC)c2O)C(=O)O[C@@H](C)[C@@H]1Oc1ccccc1` [Compound F51], the pest or weed control at 100 ppm was in the range of 80 to 100% in assay [1] (setting [3]), 0 to 80% in assay [1] (setting [5]), 80 to 100% in assay [2] (setting [7]) and 0 to 80% in assay [2] (setting [9]).
